From patent publication US20130178466A1, “Treatment of Microbial Infections” (BIOCOPEA LIMITED, priority 2009, published 2013) come the findings set out here.

Read-outs that look alike come from different tables or passages of the source.

In test [1] the test system is Influenza A/PR/8/34. Put plainly: In vivo mouse challenge with lethal influenza (H1N1). On the set-up: species or system C57BL/6 female mice. As to conditions: H1N1-infected mice, single intra-peritoneal dose on day 3. Here is the method: Protocol: Fifty (50) C57BL/6 female mice (6-7 weeks old), were divided into five (5) experimental groups containing ten (10) animals each. On day 1, animals received an intranasal lethal dose (50 μl total, 25 μl nostril) of Influenza A/PR/8/34 under halothane induced anaesthesia. On Day 3, animals received one intra-peritoneal injection (100-150 μl) of the test compound (360 μg ibuproxam (BC1048), 54 μg oxametacin (BC1002), 180 μg benoxaprofen (BC 1005), 189 μg benoxaprofen hydroxamate (BC1006)).
All animals were assessed daily for morbidity, weight loss and survival from Day 1 until at least Day 6. Morbidity variables (i.e. Body Condition, Posture, Activity, Piloerection, Respiration, Vocalisation, Ataxia and Oculo/Nasal Discharges) were recorded according to the following scale of severity: Normal (0), Mild (1), Laboured (2) and Severe/Cull-point (3).
Using standard techniques as described above, mice were infected with a H1N1 virus which was allowed to become established in each of the subjects. […] The weight loss of both treated and untreated mice was then determined.

For test [2], the system named is TNF-α. Put plainly: TNF-α levels in PBMC under LPS stimulation (ELISA). As to conditions: for effect on TNF under LPS stimulation (in words): LPS stimulated cells. The class given is cell-based, human. Here is the method:
(§1) The two mitogens that the inventors used to stimulate lymphocytes, and therefore assess immune function, were lipopolysaccharide (LPS) and Concanavalin A (Con A). LPS acts on B cells but not T cells, whereas Con A acts on T cells but not B cells. […] Peripheral Blood Mononuclear Cells (PMBC) were independently administered with each mitogen, LPS or Con A, and then treated with ibuproxam, benoxaprofen hydroxamate or pentoxifylline. […] Blood was collected in 6 ml vacutainers (green cap). Blood was processed within 2 h of collection. Materials used: Non-coagulated blood; FCS; RPMI-1640 media supplemented with L-Gln and P/S; PBS; sterile tips and pipettes; Sterile 15 ml Falcon; Sterile V-bottom 96-well plates with lids; Neubauer chamber; Trypan Blue solution; 70% IPA solution; Accuspin-Histopaque tubes (Sigma, A7054) Procedure: • 1. Dilute samples 1:1 in sterile PBS; • 2. Add 30 ml of diluted blood into an Accuspin-Histopaque tube (Sigma, A7054); • 3. Centrifuge at 800 rcf 15 min at room temperature (RT); • 4. After centrifugation, the red blood cells will remain at the bottom below the frit. The monocytes (PBMC) will be present on a layer above the frit, with the plasma on top; • 5. Collect the PBMC layer with a pipette into a fresh 15 ml Falcon tube and top up to 15 ml of PBS; • 6. Centrifuge at 250 rcf 10 min at RT; • 7. Discard the supernatant, flick the pellet and add another 10 ml of PBS; • 8. Centrifuge at 250 rcf 10 min at RT; • 9. Repeat steps 7 and 8; • 10. […] Count cells and make a 4×10^6 cell/ml suspension in complete medium. Add 100 μl of cell suspension per well in a V-bottom 96-well plate. Then add 50 μl of stimulant or vehicle in complete media, and 50 μl of drug or vehicle in complete media. Incubate the cells for 24 h at 37° C. 5% CO2; • 12. […] The values in the Table are expressed as the percentage value of the LPS only control. […] Standard deviation values (st error) are given underneath each value of expressed IFN-γ or TNF-α levels.

In test [3] the test system is IFN-γ. The experiment in a line: IFN-γ levels in PBMC under LPS stimulation (ELISA). It counts as cell-based, human. The arrangement: production of IFN after LPS stimulation (in words): dose or concentration left out as unconfirmed. On the procedure:
as §1
A general note: ELISA stands for enzyme-linked immunosorbent assay.

For test [4], the system named is IFN-γ. The experiment in a line: IFN-γ levels in PBMC under Con A stimulation (ELISA). It counts as cell-based, human. As to conditions: for effect against ConA-stimulated IFN production (in words): Con A stimulated cells. On the procedure: (§2) The two mitogens that the inventors used to stimulate lymphocytes, and therefore assess immune function, were lipopolysaccharide (LPS) and Concanavalin A (Con A). LPS acts on B cells but not T cells, whereas Con A acts on T cells but not B cells.
(§3) Blood was collected in 6 ml vacutainers (green cap). Blood was processed within 2 h of collection.
(§4) Materials used: Non-coagulated blood; FCS; RPMI-1640 media supplemented with L-Gln and P/S; PBS; sterile tips and pipettes; Sterile 15 ml Falcon; Sterile V-bottom 96-well plates with lids; Neubauer chamber; Trypan Blue solution; 70% IPA solution; Accuspin-Histopaque tubes (Sigma, A7054)
(§5) Procedure: • 1. Dilute samples 1:1 in sterile PBS; • 2. Add 30 ml of diluted blood into an Accuspin-Histopaque tube (Sigma, A7054); • 3. Centrifuge at 800 rcf 15 min at room temperature (RT); • 4. After centrifugation, the red blood cells will remain at the bottom below the frit. The monocytes (PBMC) will be present on a layer above the frit, with the plasma on top; • 5. Collect the PBMC layer with a pipette into a fresh 15 ml Falcon tube and top up to 15 ml of PBS; • 6. Centrifuge at 250 rcf 10 min at RT; • 7. Discard the supernatant, flick the pellet and add another 10 ml of PBS; • 8. Centrifuge at 250 rcf 10 min at RT; • 9. Repeat steps 7 and 8; • 10. Discard the supernatant and resuspend the pellet in 1 ml of complete medium (RPMI-1640 10% FCS); • 11. Count cells and make a 4×10^6 cell/ml suspension in complete medium. Add 100 μl of cell suspension per well in a V-bottom 96-well plate. Then add 50 μl of stimulant or vehicle in complete media, and 50 μl of drug or vehicle in complete media. Incubate the cells for 24 h at 37° C. 5% CO2; • 12. After incubation, take 60 μl of cell supernatant to measure IFNγ and TNFα by ELISA (OptEIA human IFNγ, cat No. 555142 and human TNF, Cat No. 555212) following manufacturer's instructions (BD Biosciences).

The test system of test [5] is TNF-α. Put plainly: TNF-α levels in PBMC under Con A stimulation (ELISA). It counts as cell-based, human. As to conditions: for effect against ConA-stimulated TNF production (in words): Con A stimulated cells. Here is the method: as §2, §3, §4, §5
Where [6] appears, read: LPS, 1 μM, percentage of LPS only control (100%).
The mark [7] stands for this setting: LPS, 10 μM, percentage of LPS only control (100%).
[8] abbreviates: LPS, 100 μM, percentage of LPS only control (100%).
[9] abbreviates: no LPS, 1 μM, percentage of LPS only control.
The mark [10] stands for this setting: no LPS, 10 μM, percentage of LPS only control.
Setting [11] is: no LPS, 100 μM, percentage of LPS only control.
The mark [12] stands for this setting: ConA, 1 μM, compared to 100% untreated cells under Con A stimulation.
[13] abbreviates: ConA, 10 μM, compared to 100% untreated cells under Con A stimulation.
Where [14] appears, read: ConA, 100 μM, compared to 100% untreated cells under Con A stimulation.

For the compound `CC(=O)CCCCn1c(=O)c2c(ncn2C)n(C)c1=O` [BC1042, pentoxifylline], the “survival rate versus control, untreated mice” value (shortened to “survival rate versus control”) in test [1] was “higher survival rate than the control”. Moreover, the “effect on TNF under LPS stimulation (in words)” value in test [2] is “less of an effect”. For the same compound, the TNF-α % signal in test [2] (setting [6]) was 113.04%; in test [2] (setting [7]) it was 107.28%; in test [2] (setting [8]), 114.60%; in test [2] (setting [9]), 1.15%; in test [2] (setting [10]), −2.45%; in test [2] (setting [11]) it was −0.80%. The TNF-α % signal is listed as 101.46% in test [5] (setting [12]); 102.31% in test [5] (setting [13]); 103.71% in test [5] (setting [14]); 1.11% in test [5] (no ConA, 1 μM); −2.37% in test [5] (no ConA, 10 μM); −0.77% in test [5] (no ConA, 100 μM). Also, in test [3], the “production of IFN after LPS stimulation (in words)” value was “less pronounced than ibuproxam”. The IFN-γ % signal in test [3] (setting [6]) is given as 102.11%; in test [3] (setting [7]), 98.28%; in test [3] (setting [8]), 40.73%; in test [3] (setting [9]), 3.98%; in test [3] (setting [10]) it was 1.48%; in test [3] (setting [11]), 2.03%. Besides, the IFN-γ % signal in test [4] (setting [12]) turned out to be 108.10%; in test [4] (setting [13]) it was 97.98%; in test [4] (setting [14]), 92.61%; in test [4] (no ConA, 1 μM), 1.13%; in test [4] (no ConA, 10 μM), 0.42%; in test [4] (no ConA, 100 μM), 0.58%. The “effect against ConA-stimulated IFN production (in words)” value in test [4] was “little effect”. In test [5], the “effect against ConA-stimulated TNF production (in words)” value is on record as “little effect”.

Take `CC(C)Cc1ccc(C(C)C(=O)NO)cc1` (stereo not shown) [BC1048, ibuproxam]: the “survival rate versus control” value in test [1] is “higher survival rate than the control”. Further, the “effect on TNF under LPS stimulation (in words)” value in test [2] is given as “less of an effect”. In addition, the TNF-α % signal was 105.78% in test [2] (setting [6]); 105.67% in test [2] (setting [7]); 109.93% in test [2] (setting [8]); 3.14% in test [2] (setting [9]); 0.48% in test [2] (setting [10]); −1.28% in test [2] (setting [11]). Besides, the TNF-α % signal in test [5] (setting [12]) was 109.64%; in test [5] (setting [13]), 106.74%; in test [5] (setting [14]), 79.25%; in test [5] (no ConA, 1 μM) it was 3.08%; in test [5] (no ConA, 10 μM) it was 0.48%; in test [5] (no ConA, 100 μM) it was −1.25%. Further, the IFN-γ % signal in test [3] (setting [6]) is 89.21%; in test [3] (setting [7]), 96.62%; in test [3] (setting [8]) it was −1.28%; in test [3] (setting [9]), −4.14%; in test [3] (setting [10]) it was −3.67%; in test [3] (setting [11]), −6.29%. Also, the IFN-γ % signal was 94.90% in test [4] (setting [12]); 97.25% in test [4] (setting [13]); 78.18% in test [4] (setting [14]); −0.68% in test [4] (no ConA, 1 μM); −0.61% in test [4] (no ConA, 10 μM); −1.04% in test [4] (no ConA, 100 μM). Also, the “production of IFN after LPS stimulation (in words)” value in test [3] (highest concentration) was “completely blocks”. Also, in test [4], the “effect against ConA-stimulated IFN production (in words)” value is “modest effect”. For the same compound, in test [5], the “effect against ConA-stimulated TNF production (in words)” value was “modest effect”.

For `COc1ccc2c(c1)c(CC(=O)NO)c(C)n2C(=O)c1ccc(Cl)cc1` [BC1002, oxametacin], the “survival rate versus control” value in test [1] is “higher survival rate than the control”.

Take `CC(C(=O)O)c1ccc2oc(-c3ccc(Cl)cc3)nc2c1` (stereo not shown) [BC1005, benoxaprofen]: the “survival rate versus control” value in test [1] is “higher survival rate than the control”.

Take `CC(C(=O)NO)c1ccc2oc(-c3ccc(Cl)cc3)nc2c1` (stereo not shown) [BC1006, benoxaprofen hydroxamate]: the “survival rate versus control” value in test [1] was “higher survival rate than the control”. For the same compound, the TNF-α % signal was 106.25% in test [2] (setting [6]); 101.47% in test [2] (setting [7]); 57.77% in test [2] (setting [8]); −2.29% in test [2] (setting [9]); −2.27% in test [2] (setting [10]); 11.97% in test [2] (setting [11]). In addition, the TNF-α % signal was determined as 83.37% in test [5] (setting [12]); 38.65% in test [5] (setting [13]); 51.50% in test [5] (setting [14]); 2.84% in test [5] (no ConA, 1 μM); 1.62% in test [5] (no ConA, 10 μM); 19.51% in test [5] (no ConA, 100 μM). Besides, the “maximal effect against TNF under LPS stimulation” value in test [2] (at the higher concentration) was 41%. For the same compound, the IFN-γ % signal in test [3] (setting [6]) amounted to 35.29%; in test [3] (setting [7]), 16.67%; in test [3] (setting [8]), 21.21%; in test [3] (setting [9]), 16.74%; in test [3] (setting [10]), 13.46%; in test [3] (setting [11]) it was 12.38%. The IFN-γ % signal was 98.35% in test [4] (setting [12]); 33.81% in test [4] (setting [13]); 3.78% in test [4] (setting [14]); 3.76% in test [4] (no ConA, 1 μM); 2.80% in test [4] (no ConA, 10 μM); 1.82% in test [4] (no ConA, 100 μM). For the same compound, the “effect against ConA-stimulated IFN production (in words)” value in test [4] is “clear effects”. In test [5], the “effect against ConA-stimulated TNF production (in words)” value is on record as “clear effects”.
